Reference: patent US20050009820A1, “Thiochromenones used to combat painful conditions and neurodegenerative diseases” (priority 2001, published 2005)

Legend:
[1] = target: T1, mGluR1 receptor (Homo sapiens, UniProt Q13255); test: Determination of the activity on the mGluR1 receptor (luciferase luminescence in mGluR1 receptor-expressing CHO cells stimulated with 1 mM glutamate); type: cell-based; conditions: 1 mM glutamate with the test substance, 37° C., 4 h, luminescence readout
T1 construct: expressed in transfected cells; host or cells: CHO cells
Experimental: 1. Determination of the activity on the mGluR1 receptor
mGluR1 receptor-expressing CHO cells are seeded in 96-well plates (Greiner, Frickenhausen, Germany) (20 000 cells/well) and cultivated in ultra CHO medium (Bio-Whittaker, Walkersville, Md., 10% fetal calf serum) for one day. The substances to be tested are initially dissolved in a concentration of 10^−2 M in 100% DMSO and then diluted to the desired concentration with the culture medium. After being washed once with cell culture medium, the cells are incubated with 1 mM glutamate and simultaneously with the substance to be tested at 37° C. for 4 h. The medium is then aspirated off and the cells are lysed with 75 μl of Triton-luciferase buffer (1% Triton X 100, 10% glycerol, 2 mM DTT, 25 mM Na2HPO4, 25 mM TRIS), (530 μM ATP, 470 μM luciferin, 270 μM CoA, 20 mM tricine, 2.67 mM MgSO4, 33.3 mM DTT, 0.1 mM EDTA, pH 7.8). The luminescence is measured after one minute using a camera (Hamamatsu, Japan). Cells incubated only with glutamate show a marked increase in the luminescence compared with controls, while mGluR1 receptor antagonists reduce this concentration-dependently to below the initial luminscence.

T1 sequence (Q13255 19-1194): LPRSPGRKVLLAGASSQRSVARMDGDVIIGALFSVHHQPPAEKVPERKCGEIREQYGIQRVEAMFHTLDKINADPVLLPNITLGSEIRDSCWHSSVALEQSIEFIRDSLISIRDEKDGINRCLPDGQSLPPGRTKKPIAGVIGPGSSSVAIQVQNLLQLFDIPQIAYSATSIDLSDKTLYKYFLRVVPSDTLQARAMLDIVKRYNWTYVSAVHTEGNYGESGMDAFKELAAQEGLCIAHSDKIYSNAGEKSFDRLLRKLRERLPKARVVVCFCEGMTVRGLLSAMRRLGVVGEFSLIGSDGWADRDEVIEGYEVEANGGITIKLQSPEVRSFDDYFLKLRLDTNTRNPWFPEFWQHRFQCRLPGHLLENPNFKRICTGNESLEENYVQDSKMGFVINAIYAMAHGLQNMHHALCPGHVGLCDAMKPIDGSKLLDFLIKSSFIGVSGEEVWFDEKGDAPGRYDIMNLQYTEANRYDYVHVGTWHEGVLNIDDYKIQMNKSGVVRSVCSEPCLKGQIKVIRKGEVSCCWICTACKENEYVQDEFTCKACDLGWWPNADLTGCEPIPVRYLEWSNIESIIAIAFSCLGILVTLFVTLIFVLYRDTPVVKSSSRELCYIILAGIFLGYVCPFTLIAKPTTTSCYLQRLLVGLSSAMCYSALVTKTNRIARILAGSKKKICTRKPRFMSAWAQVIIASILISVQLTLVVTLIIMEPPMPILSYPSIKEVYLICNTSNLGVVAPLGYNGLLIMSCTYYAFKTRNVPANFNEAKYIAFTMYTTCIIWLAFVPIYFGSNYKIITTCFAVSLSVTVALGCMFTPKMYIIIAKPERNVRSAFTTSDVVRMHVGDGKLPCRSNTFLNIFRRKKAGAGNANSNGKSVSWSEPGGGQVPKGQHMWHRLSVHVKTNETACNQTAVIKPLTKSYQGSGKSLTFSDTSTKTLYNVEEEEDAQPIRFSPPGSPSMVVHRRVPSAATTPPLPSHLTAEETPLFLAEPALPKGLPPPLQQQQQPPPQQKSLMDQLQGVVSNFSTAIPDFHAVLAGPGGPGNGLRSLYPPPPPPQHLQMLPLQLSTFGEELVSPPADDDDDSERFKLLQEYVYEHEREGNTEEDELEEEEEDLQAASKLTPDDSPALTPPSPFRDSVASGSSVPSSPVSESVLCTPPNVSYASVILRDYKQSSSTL

IC50 [1] | melting point | SMILES
22 nM | – | CCC1CCc2c(sc3cc(N(C)CCOC)ccc3c2=O)C1 (stereo not shown) [Example 3-21, 3-Ethyl-6-[(2-methoxyethyl)(methyl)amino]-1,2,3,4-tetrahydro-9H-thio-xanthen-9-one]
13 nM | – | CCC1CCc2c(sc3cc(N4CCCCC4)ccc3c2=O)C1 (stereo not shown) [Example 3-22, 3-Ethyl-6-(1-piperidinyl)-1,2,3,4-tetrahydro-9H-thioxanthen-9-one]
28 nM | – | CCC1CCc2c(sc3cc(N4CCCCC4)c(F)cc3c2=O)C1 (stereo not shown) [Example 3-23, 3-Ethyl-7-fluoro-6-(1-piperidinyl)-1,2,3,4-tetrahydro-9H-thioxanthen-9-one]
35 nM | – | CCC(=O)Nc1ccc2c(=O)c3c(sc2c1)CC(CC)CC3 (stereo not shown) [Example 3-49, N-(3-Ethyl-9-oxo-2,3,4,9-tetrahydro-1H-thioxanthen-6-yl)propanamide]
35 nM | – | CCC1CCc2c(sc3cc(-c4cncnc4)ccc3c2=O)C1 (stereo not shown) [Example 3-55]
25 nM | – | CCC1CCc2c(sc3cc(N(C)S(=O)(=O)c4cccc(C#N)c4)ccc3c2=O)C1 (stereo not shown) [Example 4-8, 3-Cyano-N-(3-ethyl-9-oxo-2,3,4,9-tetrahydro-1-thioxanthen-6-yl)-N-methylbenzenesulfonamide]

Continued, compound first:

SMILES | IC50 [1] | melting point
CCC1CCc2c(sc3cc(-c4nnn[nH]4)ccc3c2=O)C1 (stereo not shown) [Example 1-3, 3-Ethyl-6-(1H-tetrazol-5-yl)-1,2,3,4-tetrahydro-9H-thioxanthen-9-one] | 9 nM | –
CCC1CCc2c(sc3cc(-c4cccs4)ccc3c2=O)C1 (stereo not shown) [Example 1-10, 3-Ethyl-6-(2-thienyl)-1,2,3,4-tetrahydro-9H-thioxanthen-9-one] | 97 nM | –
CC1(C)CCc2c(sc3cc(-c4cccc(C#N)c4)ccc3c2=O)C1 [Example 1-27, 3-(3,3-Dimethyl-9-oxo-2,3,4,9-tetrahydro-1H-thioxanthen-6-yl)benzonitrile] | 23 nM | –
CCC1CCc2c(sc3cc(-c4cccc(C#N)c4)ccc3c2=O)C1 (stereo not shown) [Example 1-29, 3-(3-Ethyl-9-oxo-2,3,4,9-tetrahydro-1H-thioxanthen-6-yl)benzonitrile] | 21 nM | –
CC1(C)CCc2c(sc3cc(-c4cccnc4)ccc3c2=O)C1 [Example 1-31, 3,3-Dimnethyl-6-(3-pyridinyl)-1,2,3,4-tetrahydro-9H-thioxanthen-9-one] | 31 nM | –
CCC1CCc2c(sc3cc(-c4noc(=O)[nH]4)ccc3c2=O)C1 (stereo not shown) [Example 1-34, 3-(3-Ethyl-9-oxo-2,3,4,9-tetrahydro-1H-thioxanthen-6-yl)-1,2,4-oxadiazol-5(4H)-one] | 81 nM | –
CC1(C)CCc2c(sc3cc(NS(C)(=O)=O)ccc3c2=O)C1 [Example 2-11, N-(3,3-Dimethyl-9-oxo-2,3,4,9-tetrahydro-1H-thioxanthen-6-yl)methanesulfonamide] | – | 272 °C
CC1(C)CCc2c(sc3cc(NS(=O)(=O)c4ccccc4)ccc3c2=O)C1 [Example 2-12, N-(3,3-Dimethyl-9-oxo-2,3,4,9-tetrahydro-1H-thioxanthen-6-yl)benzenesulfonamide] | – | 231 °C
Cc1ccc(S(=O)(=O)Nc2ccc3c(=O)c4c(sc3c2)CC(C)(C)CC4)cc1 [Example 2-13, N-(3,3-Dimethyl-9-oxo-2,3,4,9-tetrahydro-1H-thioxanthen-6-yl)-4-methylbenzenesulfonamide] | – | 279 °C
CC1(C)CCc2c(sc3cc(OS(=O)(=O)Cc4ccccc4OC(F)(F)F)ccc3c2=O)C1 [Example 2-14, 3,3-Dimethyl-9-oxo-2,3,4,9-tetrahydro-1H-thioxanthen-6-yl [2-(trifluoromethoxy)-phenyl]methanesulfonate] | – | 249 °C
CC(C)S(=O)(=O)Nc1ccc2c(=O)c3c(sc2c1)CC(C)(C)CC3 [Example 2-15, N-(3,3-Dimethyl-9-oxo-2,3,4,9-tetrahydro-1H-thioxanthen-6-yl)isopropylsulfonamide] | – | 263 °C
CC1(C)CCc2c(sc3cc(-n4cccc4)ccc3c2=O)C1 [Example 2-24, 3,3-Dimethyl-6-(1H-pyrrol-1-yl)-1,2,3,4-tetrahydro-9H-thioxanthen-9-one] | – | 169 °C
CCC1CCc2c(sc3cc(-n4cccc4)ccc3c2=O)C1 (stereo not shown) [Example 2-25, 3-Ethyl-6-(1H-pyrrol-1-yl)-1,2,3,4-tetrahydro-9H-thioxanthen-9-one] | – | 145 °C
